# Measurements: US12091426B2, “Bifunctional degraders of hematopoietic progenitor kinase and therapeutic uses thereof” (Nurix Therapeutics, Inc., priority 2021, dated 2024)
# Biological target: T1, HPK1 (Homo sapiens, UniProt Q92918)
# T1 construct: A HiBiT tag was introduced by CRISPR on the N terminus of HPK1 in Jurkat cells; host or cells: Jurkat cells (ATCC TIB-152), monoclonal line with CRISPR knock-in of HiBiT at the endogenous HPK1 locus
# Assay: HPK1 Cellular HiBit Degradation Assay
# Assay type: cell-based
# Settings: HiBiT HPK1 Jurkat cells, 24 hrs; for DC50: concentration at which 50% of HPK1 was remaining, read-out: DC50 Category; for Dmax: Jurkat, maximum degradation vs DMSO vehicle control, read-out: Dmax Category
# Procedure, shortened: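 HPK1 levels are read by HiBiT luminescence after 24 h exposure of HiBiT-knock-in Jurkat cells to compound at 10 uM–0.1 nM final (11 points). Relative to DMSO (100%), DC50 is the concentration leaving 50% HPK1 from a variable-slope fit, and Dmax is 100 minus minimum remaining. Viability checked in-plate.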
# T1 sequence (Q92918 whole entry): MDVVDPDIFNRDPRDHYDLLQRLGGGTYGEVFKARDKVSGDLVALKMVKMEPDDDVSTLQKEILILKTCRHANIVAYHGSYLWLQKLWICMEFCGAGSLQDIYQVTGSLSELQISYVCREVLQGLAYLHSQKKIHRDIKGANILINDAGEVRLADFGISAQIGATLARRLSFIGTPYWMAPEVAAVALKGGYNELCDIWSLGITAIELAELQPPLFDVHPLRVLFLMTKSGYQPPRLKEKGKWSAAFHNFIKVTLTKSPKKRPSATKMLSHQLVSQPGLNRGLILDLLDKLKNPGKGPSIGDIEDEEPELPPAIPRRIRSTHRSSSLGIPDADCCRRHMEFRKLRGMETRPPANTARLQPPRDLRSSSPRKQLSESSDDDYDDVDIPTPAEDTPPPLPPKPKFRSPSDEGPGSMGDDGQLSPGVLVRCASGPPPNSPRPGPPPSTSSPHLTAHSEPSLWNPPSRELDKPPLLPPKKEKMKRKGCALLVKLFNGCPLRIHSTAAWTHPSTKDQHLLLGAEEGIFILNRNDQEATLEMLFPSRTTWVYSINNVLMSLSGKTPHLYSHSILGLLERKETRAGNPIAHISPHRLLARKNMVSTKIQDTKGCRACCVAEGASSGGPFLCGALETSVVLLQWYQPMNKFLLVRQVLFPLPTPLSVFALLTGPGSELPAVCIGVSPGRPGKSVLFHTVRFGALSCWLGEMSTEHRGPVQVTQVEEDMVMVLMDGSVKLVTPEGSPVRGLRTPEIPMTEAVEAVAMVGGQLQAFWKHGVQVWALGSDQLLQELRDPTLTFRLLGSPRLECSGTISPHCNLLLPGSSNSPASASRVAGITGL
SMILES,DC50,Dmax
"CC(C)n1cnc2cc(-c3ccc4c(c3)N([C@H]3C[C@@H](N5CCCCC5)C3)C(=O)C43CCN(C(=O)C4CCN(C(=O)C5CCN(c6ccc(C7CCC(=O)NC7=O)cc6)CC5)CC4)CC3)nc(NC3CC3)c21 (stereo partly drawn) [Example 66, 3-(4-(4-(4-(6-(4-(cyclopropylamino)-3-isopropyl-3H-imidazo[4,5-c]pyridin-6-yl)-2-oxo-1-((1S,3S)-3-(piperidin-1-yl)cyclobutyl)spiro[indoline-3,4′-piperidine]-1′-carbonyl)piperidine-1-carbonyl)piperidin-1-yl)phenyl)piperidine-2,6-dione]",< 100 nM,70 to 85%
"CC(C)n1cnc2cc(-c3ccc4c(c3)N([C@H]3C[C@@H](N5CCCCC5)C3)C(=O)C43CCN(C(=O)C4CCN(C(=O)CC5CCN(c6ccc(C7CCC(=O)NC7=O)cn6)CC5)CC4)CC3)nc(NC3CC3)c21 (mixture of isomers) [Example 93, (3RS)-3-[6-(4-{2-[4-({6-[4-(cyclopropylamino)-3-(propan-2-yl)-3H-imidazo[4,5-c]pyridin-6-yl]-2-oxo-1-[(1S,3S)-3-(piperidin-1-yl)cyclobutyl]-1,2-dihydrospiro[indole-3,4′-piperidin]-1′-yl}carbonyl)piperidin-1-yl]-2-oxoethyl}piperidin-1-yl)pyridin-3-yl]piperidine-2,6-dione]",< 100 nM,50 to 70%
"CC(C)n1cnc2cc(-c3ccc4c(c3)N([C@H]3C[C@@H](N5CCCCC5)C3)C(=O)C43CCN(C(=O)[C@@H]4CCN(C(=O)[C@H]5CC[C@H](Nc6ccc(C(=O)NC7CCC(=O)NC7=O)nc6)CC5)C4)CC3)nc(Nc3ccccc3F)c21 (mixture of isomers) [Example 7, N-[(3RS)-2,6-dioxopiperidin-3-yl]-5-{1[(1R,4R)-4-[(3R)-3-[(6-{4-[(2-fluorophenyl)amino]-3-(propan-2-yl)-3H-imidazo[4,5-c]pyridin-6-yl}-2-oxo-1-[(1S,3S)-3-(piperidin-1-yl)cyclobutyl]-1,2-dihydrospiro[indole-3,4′-piperidin]-1′-yl)carbonyl]pyrrolidine-1-carbonyl]cyclohexyl]amino}pyridine-2-carboxamide]",500 to 1000 nM,50 to 70%
"CC(C)n1cnc2cc(-c3ccc4c(c3)N([C@H]3C[C@@H](N5CCCCC5)C3)C(=O)C43CCN(C(=O)[C@H]4CCN(C(=O)C5CCN(c6ccc(C7CCC(=O)NC7=O)cn6)CC5)C4)CC3)nc(NC3CC3)c21 (mixture of isomers) [Example 32, (3RS)-3-(6-{4-[(3S)-3-({6-[4-(cyclopropylamino)-3-(propan-2-yl)-3H-imidazo[4,5-c]pyridin-6-yl]-2-oxo-1-[(1S,3S)-3-(piperidin-1-yl)cyclobutyl]-1,2-dihydrospiro[indole-3,4′-piperidin]-1′-yl}carbonyl)pyrrolidine-1-carbonyl]piperidin-1-yl}pyridin-3-yl)piperidine-2,6-dione]",100 to 500 nM,50 to 70%
"CC(C)n1cnc2cc(-c3ccc4c(c3)N([C@H]3C[C@@H](N5CCCCC5)C3)C(=O)C43CCN(C(=O)[C@@H]4CCN(C(=O)[C@H]5CC[C@H](Oc6ccc(N7CCC(=O)NC7=O)cn6)CC5)C4)CC3)nc(Nc3ccccc3F)c21 [Example 21, 1-(6-{[(1R,4R)-4-[(3R)-3-[(6-{4-[(2-fluorophenyl)amino]-3-(propan-2-yl)-3H-imidazo[4,5-c]pyridin-6-yl}-2-oxo-1-[(1S,3S)-3-(piperidin-1-yl)cyclobutyl]-1,2-dihydrospiro[indole-3,4′-piperidin]-1′-yl)carbonyl]pyrrolidine-1-carbonyl]cyclohexyl]oxy}pyridin-3-yl)-1,3-diazinane-2,4-dione]",< 100 nM,> 85%
"CC(C)n1cnc2cc(-c3ccc4c(c3)N([C@H]3C[C@@H](N5CCCCC5)C3)C(=O)C43CCN(C(=O)C4CCN(C(=O)[C@H]5CC[C@H](C(=O)N6CCc7ccc(C8CCC(=O)NC8=O)cc7C6)CC5)CC4)CC3)nc(Nc3ccccc3F)c21 (mixture of isomers) [Example 50, (3RS)-3-{2-[(1R,4R)-4-{4-[(6-{4-[(2-fluorophenyl)amino]-3-(propan-2-yl)-3H-imidazo[4,5-c]pyridin-6-yl}-2-oxo-1-[(1S,3S)-3-(piperidin-1-yl)cyclobutyl]-1,2-dihydrospiro[indole-3,4′-piperidin]-1′-yl)carbonyl]piperidine-1-carbonyl}cyclohexanecarbonyl]-1,2,3,4-tetrahydroisoquinolin-7-yl}piperidine-2,6-dione]",< 100 nM,70 to 85%
"CC(C)n1cnc2cc(-c3ccc4c(c3)N([C@H]3C[C@@H](N5CCCCC5)C3)C(=O)C43CCN(C(=O)C4CCN(C(=O)[C@H]5CC[C@H](Nc6ccc(C7CCC(=O)NC7=O)cc6)CC5)CC4)CC3)nc(Nc3ccncc3F)c21 (mixture of isomers) [Example 55, (3RS)-3-(4-{[(1R,4R)-4-{4-[(6-{4-[(3-Fluoropyridin-4-yl)amino]-3-(propan-2-yl)-3H-imidazo[4,5-c]pyridin-6-yl}-2-oxo-1-[(1S,3S)-3-(piperidin-1-yl)cyclobutyl]-1,2-dihydrospiro[indole-3,4′-piperidin]-1′-yl)carbonyl]piperidine-1-carbonyl}cyclohexyl]amino}phenyl)piperidine-2,6-dione]",100 to 500 nM,50 to 70%

# Next, values leading:
DC50,Dmax,SMILES
100 to 500 nM,> 85%,"Cc1cc(C2CCC(=O)NC2=O)ccc1O[C@H]1CC[C@H](C(=O)N2CCC(C)(C(=O)N3CCC4(CC3)C(=O)N([C@H]3C[C@@H](N5CCCCC5)C3)c3cc(-c5cc6ncn(C(C)C)c6c(NC6CC6)n5)ccc34)CC2)CC1 (mixture of isomers) [Example 156, (3RS)-3-(3-methyl-4-{[(1R,4R)-4-[4-({6-[4-(cyclopropylamino)-3-isopropylimidazo[4,5-c]pyridin-6-yl]-2-oxo-1-[(1S,3S)-3-(piperidin-1-yl)cyclobutyl]spiro[indole-3,4′-piperidin]-1′-yl}carbonyl)-4-methylpiperidine-1-carbonyl]cyclohexyl]oxy}phenyl)piperidine-2,6-dione]"
< 100 nM,70 to 85%,"CC(C)n1cnc2cc(-c3ccc4c(c3)N([C@H]3C[C@@H](N5CCCCC5)C3)C(=O)C43CCN(C(=O)[C@@H]4CCCN(C(=O)C5CCN(c6ccc(C7CCC(=O)NC7=O)cn6)CC5)C4)CC3)nc(NC3CC3)c21 (mixture of isomers) [Example 264, (3RS)-3-(6-{4-[(3R)-3-({6-[4-(cyclopropylamino)-3-(propan-2-yl)-3H-imidazo[4,5-c]pyridin-6-yl]-2-oxo-1-[(1S,3S)-3-(piperidin-1-yl)cyclobutyl]-1,2-dihydrospiro[indole-3,4′-piperidin]-1′-yl}carbonyl)piperidine-1-carbonyl]piperidin-1-yl}pyridin-3-yl)piperidine-2,6-dione]"
100 to 500 nM,70 to 85%,"CC(C)n1cnc2cc(-c3ccc4c(c3)N([C@H]3C[C@@H](N5CCCCC5)C3)C(=O)C43CCN(C(=O)C4(C)CCN(C(=O)[C@H]5CC[C@H](Oc6ncc(C7CCC(=O)NC7=O)cn6)CC5)CC4)CC3)nc(NC3CC3)c21 (mixture of isomers) [Example 194, (3RS)-3-(2-{[(1R,4R)-4-[4-({6-[4-(cyclopropylamino)-3-(propan-2-yl)-3H-imidazo[4,5-c]pyridin-6-yl]-2-oxo-1-[(1S,3S)-3-(piperidin-1-yl)cyclobutyl]-1,2-dihydrospiro[indole-3,4′-piperidin]-1′-yl}carbonyl)-4-methylpiperidine-1-carbonyl]cyclohexyl]oxy}pyrimidin-5-yl)piperidine-2,6-dione]"
500 to 1000 nM,50 to 70%,"CC(C)n1cnc2cc(-c3ccc4c(c3)N([C@H]3C[C@@H](N5CC6CCC(C5)O6)C3)C(=O)C43CCN(C(=O)C4(C)CCN(C(=O)CC5CCN(c6ccc(C7CCC(=O)NC7=O)cn6)CC5)CC4)CC3)nc(NC3CC3)c21 (mixture of isomers) [Example 207, (3RS)-3-[6-(4-{2-[4-({6-[4-(cyclopropylamino)-3-(propan-2-yl)-3H-imidazo[4,5-c]pyridin-6-yl]-2-oxo-1-[(1S,3S)-3-{8-oxa-3-Azabicyclo[3.2.1]octan-3-yl}cyclobutyl]-1,2-dihydrospiro[indole-3,4′-piperidin]-1′-yl}carbonyl)-4-methylpiperidin-1-yl]-2-oxoethyl}piperidin-1-yl)pyridin-3-yl]piperidine-2,6-dione]"
< 100 nM,> 85%,"CC(C)n1cnc2cc(-c3ccc4c(c3)N([C@H]3C[C@@H](N5CCCCC5)C3)C(=O)C43CCN(C(=O)[C@@H]4CCN(C(=O)[C@H]5CC[C@H](N(C)c6ccc(C7CCC(=O)NC7=O)cn6)CC5)C4)CC3)nc(Nc3ccncc3F)c21 (mixture of isomers) [Example 128, (3RS)-3-(6-{methyl[(1R,4R)-4-[(3R)-3-[(6-{4-[(3-Fluoropyridin-4-yl)amino]-3-(propan-2-yl)-3H-imidazo[4,5-c]pyridin-6-yl}-2-oxo-1-[(1S,3S)-3-(piperidin-1-yl)cyclobutyl]-1,2-dihydrospiro[indole-3,4′-piperidin]-1′-yl)carbonyl]pyrrolidine-1-carbonyl]cyclohexyl]amino}pyridin-3-yl)piperidine-2,6-dione]"
100 to 500 nM,50 to 70%,"CC(C)n1cnc2cc(-c3ccc4c(c3)N([C@H]3C[C@@H](N5CCC[C@@H](F)C5)C3)C(=O)C43CCN(C(=O)C4(C)CCN(C(=O)CC5CCN(c6ccc(C7CCC(=O)NC7=O)cn6)CC5)CC4)CC3)nc(NC3CC3)c21 (mixture of isomers) [Example 205, (3RS)-3-[6-(4-{2-[4-({6-[4-(cyclopropylamino)-3-(propan-2-yl)-3H-imidazo[4,5-c]pyridin-6-yl]-2-oxo-1-[(1S,3S)-3-[(3R)-3-fluoropiperidin-1-yl]cyclobutyl]-1,2-dihydrospiro[indole-3,4′-piperidin]-1′-yl}carbonyl)-4-methylpiperidin-1-yl]-2-oxoethyl}piperidin-1-yl)pyridin-3-yl]piperidine-2,6-dione]"
